Measurements taken from the RepoRT retention time repository (doi:10.1016/j.jhazmat.2019.121712).

Assay: Thermo Scientific Acclaim RSLC 120 C18, 100 × 2.1 mm, 2.2 µm, 30 °C; A: 90% water + 10% methanol + 0.01% formic acid + 5 mM ammonium formate; B: methanol + 0.01% formic acid + 5 mM ammonium formate; gradient (min/%B) 0.1/1 3/39 14/99.9 16/99.9
Settings: stereoisomer not certain

| Compound | LC retention time |
| --- | --- |
| COC(=O)c1ccccc1S(=O)(=O)NC(=O)Nc1nc(C)nc(OC)n1 | 6.31 min |
| COC(=O)C(c1ccccc1)C1CCCCN1 (stereo not given) | 4.96 min |
| CNC(=O)ON=C(C)C(C)S(C)=O (stereo not given) | 3.35 min |
| NCCc1cnc[nH]1 | 1.58 min |
| CC(=O)OCC(=O)C12N=C(C)OC1CC1C3CCC4=CC(=O)C=CC4(C)C3C(O)CC12C (stereo not given) | 9.35 min |
| COC(=O)c1ccc(C)cc1C1=NC(C)(C(C)C)C(=O)N1 (stereo not given) | 7.16 min |
| CC12CCC3c4ccc(O)cc4CCC3C1CCC2=O (stereo not given) | 9.56 min |
| CC(CCc1ccc(O)cc1)NCCc1ccc(O)c(O)c1 (stereo not given) | 4.21 min |
| COc1ccc(C(=O)c2cn(CCCCC(=O)O)c3ccccc23)cc1 | 8.81 min |
| Nc1ccc(S(=O)(=O)Nc2ncccn2)cc1 | 3.48 min |
| CC(=O)CCCCn1c(=O)c2c(ncn2C)n(C)c1=O | 5.23 min |
| O=c1[nH]cnc2[nH]ncc12 | 2.19 min |
| NCC(O)c1cccc(O)c1 (stereo not given) | 1.81 min |
| CN1CCN(CCCN2c3ccccc3Sc3ccccc32)CC1 | 8.8 min |
| CCC1OC(=O)C(C)C(OC2CC(C)(OC)C(O)C(C)O2)C(C)C(OC2OC(C)CC(N(C)C)C2O)C(C)(OC)CC(C)C(=O)C(C)C(O)C1(C)O (stereo not given) | 9.18 min |
| CC(C)NCC(O)COc1ccc(CC(N)=O)cc1 (stereo not given) | 3.09 min |
| CCCC(NC)C(=O)c1ccc2c(c1)OCO2 (stereo not given) | 4.99 min |
| COc1ccc2c3c1OC1C(=O)CCC4C(C2)N(C)CCC314 (stereo not given) | 3.69 min |
| CCCCCn1cc(C(=O)N2CCN(C)CC2)c2ccccc21 | 7.75 min |
| CCN(CC)CCCOC(=O)C1(c2ccccc2)CC2CCC1C2 (stereo not given) | 8.54 min |
| CN(C)CCc1c[nH]c2ccc(Cn3cncn3)cc12 | 3.49 min |
| Cc1c(N)c(=O)n(-c2ccccc2)n1C | 4.69 min |
| CCCN(CCC)CCc1cccc2c1CC(=O)N2 | 3.98 min |
| Cc1ccc(NC(=O)NC(C)(C)c2ccccc2)cc1 | 9.68 min |
| OCCN(CCO)c1nc(N2CCCCC2)c2nc(N(CCO)CCO)nc(N3CCCCC3)c2n1 | 9.36 min |
| CCNC(C)C(O)c1ccc(O)c(O)c1 (stereo not given) | 1.99 min |
| COc1ccc2[nH]cc(CCN(C(C)C)C(C)C)c2c1 | 4.81 min |

| Compound | LC retention time |
| --- | --- |
| CCCc1nn(C)c2c(=S)nc(-c3cc(S(=O)(=O)N4CCN(CC)CC4)ccc3OCC)[nH]c12 | 10.6 min |
| CNC(C)CC1CCCCC1 (stereo not given) | 5.74 min |
| CNC(C)Cc1ccccc1OC (stereo not given) | 4.69 min |
| CCCCC(CC)COC(=O)c1ccccc1C(=O)OCC(CC)CCCC (stereo not given) | 15 min |
| CCCNC(C)C(=O)Nc1c(C)csc1C(=O)OC (stereo not given) | 4.69 min |
| CCOC(=O)C1CC(=O)C(=C(O)C2CC2)C(=O)C1 (stereo not given) | 8.45 min |
| CC(CN(C)C)CN1c2ccccc2CCc2ccccc21 (stereo not given) | 8.31 min |
| CCC1CN2CCC3(O)C(=Nc4cccc(OC)c43)C2CC1C(=COC)C(=O)OC (stereo not given) | 5.95 min |
| C=CC1(C)CC(OC(=O)CSCCN(CC)CC)C2(C)C(C)CCC3(CCC(=O)C32)C(C)C1O (stereo not given) | 7.71 min |
| CC(Cc1ccc(O)cc1)NCC(O)c1cc(O)cc(O)c1 (stereo not given) | 3.61 min |
| CCNC(C)C(=O)c1ccc(C)cc1 (stereo not given) | 4.74 min |
| CCn1cc(C(=O)O)c(=O)c2ccc(C)nc21 | 7.06 min |
| CCCCCn1nc(C(=O)Oc2cccc3cccnc23)c2ccccc21 | 11.4 min |
| CCN1CC(CCN2CCOCC2)C(c2ccccc2)(c2ccccc2)C1=O (stereo not given) | 6.23 min |
| CC(NCCc1ccc(O)cc1)C(O)c1ccc(O)cc1 (stereo not given) | 3.79 min |
| CCCCCn1cc(C(=O)CC(C)(C)C(C)(C)O)c2ccccc21 | 11.6 min |
| CON=C(C(=O)NC1C(=O)N2C(C(=O)[O-])=C(C[n+]3cccc4c3CCCC4)CSC12)c1csc(N)n1 (stereo not given) | 3.76 min |
| CNC1C(C)OC(OC2C(C)OC(OC3C(C)=CCC4CC(CC5(C=CC(C)C(C(C)C)O5)O4)OC(=O)C4C=C(C)C(O)C5OCC(=CC=CC3C)C45O)CC2OC)CC1OC (stereo not given) | 12 min |
| COc1ccc2[nH]cc(CC(C)N)c2c1 (stereo not given) | 4.36 min |
| Cc1c(NC(=O)c2cccnc2)c(=O)n(-c2ccccc2)n1C | 4.56 min |
| Cc1cc(C)nc(Nc2ccccc2)n1 | 9.44 min |
| O=C1C(CCS(=O)c2ccccc2)C(=O)N(c2ccccc2)N1c1ccccc1 (stereo not given) | 7.94 min |
| O=C(c1cccc2ccccc12)c1cn(CC2CCCCC2)c2ccccc12 | 13 min |
| C#CCOS(=O)OC1CCCCC1Oc1ccc(C(C)(C)C)cc1 (stereo not given) | 12.8 min |
| CC(=O)OC1CN2CCC1CC2 (stereo not given) | 4.87 min |
| CCOP(=S)(OCC)SC1OCCOC1SP(=S)(OCC)OCC (stereo not given) | 12.1 min |
| CN1CCCCC1Cn1cc(C(=O)c2cccc3ccccc23)c2ccccc21 (stereo not given) | 8.09 min |

| Compound | LC retention time |
| --- | --- |
| COP(=S)(OC)SCOC(C)=O | 7.16 min |
| CCC(CC)COC(C(=O)OCCN(C)C)(c1ccccc1)c1ccccc1 | 11.6 min |
| CSc1ccc(C(=O)c2[nH]c(=O)[nH]c2C)cc1 | 6.67 min |
| COP(=O)(OC)OC(C)=CC(=O)N(C)C | 4.5 min |
| CC(COc1ccccc1)NC(C)C(O)c1ccc(O)cc1 (stereo not given) | 5.28 min |
| CC12CCC(=O)C=C1CCC1C2C(O)CC2(C)C1CCC2(O)C(=O)CO (stereo not given) | 7.84 min |
| O=C(Oc1cccc2cccnc12)c1cn(CC2CCCCC2)c2ccccc12 | 12.4 min |
| O=C(Oc1ccccc1)c1ccccc1C(=O)Oc1ccccc1 | 11.2 min |
| COc1cc(NC(C)CCCN)c2ncccc2c1 (stereo not given) | 6.82 min |
| COc1ccc2c3c1OC1C(OC(C)=O)=CCC4C(C2)N(C)CCC314 (stereo not given) | 4.47 min |
| CN(C)C(=O)NC1CCCCCCC1 | 8.47 min |
| COc1cc(CCN)cc(OC)c1OC | 3.88 min |
| CC(C(=O)O)c1cccc(C(=O)c2ccccc2)c1 (stereo not given) | 8.53 min |
| CCCCn1cc(C(=O)c2cccc3ccccc23)c2ccccc21 | 11.9 min |
| CC(=O)OC1CCC2C3CCC4CC(=O)C=C(C)C4(C)C3CCC12C (stereo not given) | 12.5 min |
| CC12CCC(O)CC1CCC1C2C(=O)CC2(C)C1CCC2(O)C(=O)CO (stereo not given) | 9.21 min |
| CNC(=O)ON=CC(C)(C)S(C)(=O)=O | 3.75 min |
| CCC(c1ccccc1)c1c(O)c2ccccc2oc1=O (stereo not given) | 9.05 min |
| NC(N)=NC(N)=NCCc1ccccc1 | 4.38 min |
| COP(=S)(OC)Oc1ccc(S(C)=O)c(C)c1 (stereo not given) | 7.28 min |
| CC12CCC3C4CCC(=O)C=C4CCC3C1CCC2OC(=O)CCc1ccccc1 (stereo not given) | 13.6 min |
| COC(=O)C1=C(C)NC(C)=C(C(=O)OCCN(C)Cc2ccccc2)C1c1cccc([N+](=O)[O-])c1 (stereo not given) | 8.39 min |
| Cc1cccc(CC(C)N)c1 (stereo not given) | 5.17 min |
| Cc1cc(C)nc(NC(=O)NS(=O)(=O)c2ccccc2C(=O)OC2COC2)n1 | 6.52 min |
| CNCCOC(c1ccccc1)c1ccccc1C (stereo not given) | 7.54 min |
| CCOP(=S)(OCC)Oc1cc(-c2ccccc2)on1 | 11.3 min |
